Assay type in all cases: in vivo
The test system of one test is Sphaerotheca fuliginea. The experiment in a line: Sphaerotheca test (cucumber)/protective. The settings on record: protective, application rate 50 g/ha, evaluation 10 days after inoculation, 100% = no infection. Here is the method:
(§1) Sphaerotheca test (cucumber/protective Solvent: 47 parts by weight of acetone Emulsifier: 3 parts by weight of alkylaryl polyglycol ether To produce a suitable preparation of active compound, 1 part by weight of active compound is mixed with the stated amounts of solvent and emulsifier, and the concentrate is diluted with water to the desired concentration. To test for protective activity, young plants are sprayed with the preparation of active compound at the stated application rate. After the spray coating has dried on, the plants are inoculated with an aqueous spore suspension of Sphaerotheca fuliginea. The plants are subsequently placed in a greenhouse at 23 to 24° C. and at a relative atmospheric humidity of approximately 75%.

The next test deals with Podosphaera leucotricha. Description: Podosphaera test (apple)/protective. Particulars: protective, application rate 50 g/ha, evaluation 10 days after inoculation, 100% = no infection. Here is the method: as §1, with “Podosphaera” for “Sphaerotheca”, “(apple)/protective” for “(cucumber/protective”, “product” for “produce”, “the causative organism of apple mildew Podosphaera leucotricha.” for “Sphaerotheca fuliginea.”, “then” for “subsequently”, “23°” for “23 to 24°”

For the next test, the system named is Venturia inaequalis. Description: Venturia test (apple)/protective. Particulars: protective, application rate 50 g/ha, evaluation 12 days after inoculation, 100% = no infection. Here is the method:
Venturia test (apple)/protective Solvent: 47 parts by weight of acetone Emulsifier: 3 parts by weight of alkylaryl polyglycol ether To produce a suitable preparation of active compound, 1 part by weight of active compound is mixed with the stated amounts of solvent and emulsifier, and the concentrate is diluted with water to the desired concentration. To test for protective activity, young plants are sprayed with the preparation of active compound at the stated application rate. After the spray coating has dried on, the plants are inoculated with an aqueous conidia suspension of the causative organism of apple scab Venturia inaequalis and then remain placed at 20° C. and a relative atmospheric humidity of approximately 70% for 1 day. The plants are then placed in a greenhouse at 20° C. and at a relative atmospheric humidity of approximately 70%.

Test [1] deals with Erysiphe graminis f.sp. hordei. Description: Erysiphe test (barley)/curative. The settings on record: curative, sprayed 48 hours after inoculation, application rate 250 g/ha, evaluation 7 days after inoculation, 100% = no infection. Here is the method: Erysiphe Test (barley)/curative Solvent: 10 parts by weight of N-methyl-pyrrolidone Emulsifier: 0.6 parts by weight of alkylaryl polyglycol ether To product a suitable preparation of active compound 1 part by weight of active compound is mixed with the stated amounts of solvent and emulsifier, and the concentrate is diluted with water to the desired concentration. To test for curative activity, young plants are dusted with spores of Erysiphe graminis f.sp. hordei. 48 hours after the incubation, the plants are sprayed with the preparation of active compound at the stated application rate. The plants are placed in a greenhouse at a temperature of approximately 20° C. and a relative atmospheric humidity of approximately 80%, in order to promote the development of mildew pustules.

Test [2] relates to Erysiphe graminis f.sp. tritci. Description: Erysiphe test (wheat)/protective. Particulars: protective, application rate 250 g/ha, evaluation 7 days after inoculation, 100% = no infection. Here is the method: Erysiphe test (wheat)/protective Solvent: 10 parts by weight of N-methyl-pyrrolidone Emulsifier: 0.6 parts by weight of alkylaryl polyglycol ether To prepare a suitable preparation of active compound, 1 part by weight of active compound is mixed with the stated amounts of solvent and emulsifier, and the concentrate is diluted with water to the desired concentration. To test for protective activity, young plants are sprayed with the preparation of active compound at the stated application rate. After the spray coating has dried on, the plants are dusted with spores of Erysiphe graminis […]. The plants are placed in a greenhouse at a temperature of approximately 20° C. and a relative atmospheric humidity of approximately 80%, in order to promote the development of mildew pustules.

In a further test the test system is Puccinia recondita. Description: Puccinia test (wheat)/curative. Particulars: curative, sprayed 48 hours after inoculation, application rate 250 g/ha, evaluation 10 days after inoculation, 100% = no infection. Here is the method:
Puccinia test (wheat/curative Solvent: 10 parts by weight of N-methyl-pyrrolidone Emulsifier: 0.6 part by weight of alkylaryl polyglycol ether To product a suitable preparation of active compound, 1 part by weight of active compound is mixed with the stated amounts of solvent and emulsifier, and the concentrate is diluted with water to the desired concentration. […] 48 hours after the inoculation the plants are sprayed with the preparation of active compound at the stated application rate. The plants are placed in a greenhouse at a temperature of approximately 20° C. and a relative atmospheric humidity of approximately 80%, in order to promote the development of rust pustules.

A further test relates to Fusarium graminearum. The settings on record: barley, protective, application rate 250 g/ha, evaluation 4 days after inoculation; 100% = no infection.
Test [3] relates to W strain of Pseudocercosporella herpotrichoides. Description: Pseudocercosporella herpotrichoides test; W strain (wheat)/protective. Particulars: protective, application rate 250 g/ha, evaluation 21 days after inoculation, 100% = no infection. Here is the method: Pseudocercosporella herpotrichoides test; W strain (wheat/protective Solvent: 10 parts by weight of N-methyl-pyrrolidone Emulsifier: 0.6 part by weight of alkylaryl polyglycol ether To product a suitable preparation of active compound, 1 part by weight of active compound is mixed with the stated amounts of solvent and emulsifier, and the concentrate is diluted with water to the desired concentration. To test for protective activity, young plants are sprayed with the preparation of active compound at the stated application rate. After the spray coating has dried on, the plants are inoculated at the base of the stem with spores of the W strain of Pseudocercosporella herpotrichoides. The plants are placed in a greenhouse at a temperature of approximately 10° C. and a relative atmospheric humidity of approximately 80%.

The subject of test [4] is Erysiphe graminis f.sp. hordei. The experiment in a line: Erysiphe test (barley)/protective. The settings on record: protective, application rate 250 g/ha, evaluation 7 days after inoculation, 100% = no infection. Here is the method: Erysiphe test (barley)/protective Solvent: 10 parts by weight of N-methyl-pyrrolidone Emulsifier: 0.6 parts by weight of alkylaryl polyglycol ether To prepare a suitable preparation of active compound, 1 part by weight of active compound if mixed with the stated amounts of solvent and emulsifier, and the concentrate is diluted with water to the desired concentration. To test for protective activity, young plants are sprayed with the preparation of active compound at the stated application rate. After the spray coating has dried on, the plants are dusted with spores of Erysiphe graminis f.sp. hordei. The plants are placed in a greenhouse at a temperature of approximately 20° C. and a relative atmospheric humidity of approximately 80%, in order to promote the development of mildew pustules.

Take `OC(Cc1ccccc1Cl)(Cn1ncnc1SSc1ncnn1CC(O)(Cc1ccccc1Cl)C1(Cl)CC1)C1(Cl)CC1` (centres unmarked) [Example I-1, di-{1-[2-(1-chlorocyclopropyl)-3-(2-chloro-phenyl)-2-hydroxy-propyl-1]-1,2,4-triazol-5-yl} disulphide]: the Efficacy in % (in the test on Sphaerotheca fuliginea; in the test with Podosphaera leucotricha; in the test with Venturia inaequalis; in [1]; in test [2]; in the test on Puccinia recondita) was 100% each time. The Efficacy in % (in the test on Fusarium graminearum; in test [3]; in test [4]) was 100% in each case.

On to `Fc1ccc(C2(Cn3ncnc3SSc3ncnn3CC3(c4ccc(F)cc4)OC3c3ccccc3Cl)OC2c2ccccc2Cl)cc1` (centres unmarked) [Example I-2], for which the Efficacy in % in the test with Sphaerotheca fuliginea is 92%; in the test on Podosphaera leucotricha, 96%.

Source of the values: patent US6420406B1, “Triazolyl disulphides” (Bayer Aktiengesellschaft, priority 1996, dated 2002).
